Test results from patent publication US20220213210A1, “COMBINATION THERAPY OF MULTIPLE SCLEROSIS COMPRISING A CD20 LIGAND” (MABION SA, priority 2017, published 2022).
Structures can show the parent of a compound that is named as a salt.

System: MOG-induced experimental allergic encephalomyelitis (EAE) murine model
Experiment: MOG-induced experimental allergic encephalomyelitis (EAE) murine model, clinical score 0-15
Type: in vivo, Mouse/C57BL/6J
Settings: dimethyl fumarate in therapeutic dose, 49 mg/kg PO bi-daily, Days 0-35 (Group 11)
Source text: FIG. 1: Combination of MabionCD20DP and teriflunomide. MabionCD20DP and teriflunomide have been administered to an experimental allergic encephalomyelitis (EAE) mouse model. The MOG (myelin oligodendrocyte glycoprotein)-induced EAE murine model consists of a sensitization period, induced by the single SC injection of MOG emulsified in CFA (complete Freund's adjuvant) on Day 0, followed by IP supplemental immunostimulation with PT carried out once at the time of EAE induction and once again 48 hours later.
FIG. 2: Combination of MabionCD20DP and dimethyl fumarate. MabionCD20DP and dimethyl fumarate have been administered to an experimental allergic encephalomyelitis (EAE) mouse model. […]
Throughout the 36-day study, general clinical examinations were performed and recorded if any unexpected abnormalities are observed.
Body weight loss can be the first sign of disease initiation, while a sudden marked weight gain tends to accompany remission of EAE symptoms. Therefore, determination of individual body weights of animals was made shortly before EAE induction on Study Day 0 and was monitored on a daily basis throughout the 35-day observation period. […]

COC(=O)/C=C/C(=O)OC [dimethyl fumarate]
disease parameters (EAE), FIG. 2: reduction of the disease parameters
